What was measured:
surinam grass = experiment: Test B pre/postemergence surinam grass; type: in vivo, Brachiaria decumbens
Procedure, shortened: (§1)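 Test chemicals in a non-phytotoxic solvent mixture with surfactant were sprayed preemergence onto planted seeds and postemergence onto plants 2 to 18 cm tall (1- to 4-leaf stage). After twelve to sixteen days in a greenhouse, injury was visually rated against untreated controls from 0 (no effect) to 10 (complete control).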

cocklebur = experiment: Test B pre/postemergence cocklebur; type: in vivo, Xanthium strumarium
Procedure, shortened: as §1

corn = experiment: Test B pre/postemergence corn; type: in vivo, Zea mays
Procedure, shortened: as §1

giant foxtail = experiment: Test B pre/postemergence giant foxtail; type: in vivo, Setaria faberii
Procedure, shortened: as §1

morningglory = experiment: Test B pre/postemergence morningglory; type: in vivo, Ipomoea hederacea; details: for Plant response rating, Morningglory: scale of 0 to 10 where 0 is no effect and 10 is complete control
Procedure, shortened: as §1

pigweed = experiment: Test B pre/postemergence pigweed; type: in vivo, Amaranthus retroflexus; details: for Plant response rating, Redroot pigweed: scale of 0 to 10 where 0 is no effect and 10 is complete control
Procedure, shortened: as §1

rape = experiment: Test B pre/postemergence rape; type: in vivo, Brassica napus; details: for Plant response rating, Rape: scale of 0 to 10 where 0 is no effect and 10 is complete control
Procedure, shortened: as §1

soybean = experiment: Test B pre/postemergence soybean; type: in vivo, Glycine max; details: for Plant response rating, Soybean: scale of 0 to 10 where 0 is no effect and 10 is complete control
Procedure, shortened: as §1

sugar beet = experiment: Test B pre/postemergence sugar beet; type: in vivo, Beta vulgaris; details: for Plant response rating, Sugarbeets: scale of 0 to 10 where 0 is no effect and 10 is complete control
Procedure, shortened: as §1

velvetleaf = experiment: Test B pre/postemergence velvetleaf; type: in vivo, Abutilon theophrasti; details: for Plant response rating, Velvetleaf: scale of 0 to 10 where 0 is no effect and 10 is complete control
Procedure, shortened: as §1

wheat = experiment: Test B pre/postemergence wheat; type: in vivo, Triticum aestivum; details: for Plant response rating, Wheat: scale of 0 to 10 where 0 is no effect and 10 is complete control
Procedure, shortened: as §1

wild oat = experiment: Test B pre/postemergence wild oat; type: in vivo, Avena fatua; details: for Plant response rating, Wild oats: scale of 0 to 10 where 0 is no effect and 10 is complete control
Procedure, shortened: as §1

rice = experiment: Test B flood test rice; type: in vivo, Oryza sativa
Procedure, shortened: (§2)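 Read-out is a visual response score from 0 (no effect) to 10 (complete control), assigned by comparison with untreated controls. Treatment was applied at the 2-leaf stage, and plants stayed in the greenhouse for twelve to sixteen days before scoring.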

smallflower flatsedge = experiment: Test B flood test smallflower flatsedge; type: in vivo, Cyperus difformis
Procedure, shortened: as §2

duck salad = experiment: Test B flood test duck salad; type: in vivo, Heteranthera limosa
Procedure, shortened: as §2

bamyardgrass = experiment: Test B flood test barnyardgrass; type: in vivo, Echinochloa crus-galli
Procedure, shortened: as §2

[1] = Postemergence, Rate 500 g/ha, scale of 0 to 10 where 0 is no effect and 10 is complete control
[2] = Preemergence, Rate 62 g/ha, scale of 0 to 10 where 0 is no effect and 10 is complete control
[3] = Preemergence, Rate 125 g/ha, scale of 0 to 10 where 0 is no effect and 10 is complete control
[4] = Preemergence, Rate 250 g/ha, scale 0 to 10, 0 is no effect, 10 is complete control
[5] = Preemergence, Rate 500 g/ha, scale 0 to 10, 0 is no effect, 10 is complete control
[6] = Rate 62 g/ha, Postemergence, scale 0 to 10 (0 no effect, 10 complete control)
[7] = Rate 125 g/ha, Postemergence, scale 0 to 10, 0 is no effect, 10 is complete control
[8] = Postemergence, Rate 250 g/ha, scale 0 to 10
[9] = Rate 62 g/ha, flood test species, Pre-emergence, visual evaluation after twelve to sixteen days
[10] = Rate 125 g/ha, under heading Pre-emergence, flood test species, visual evaluation after twelve to sixteen days
[11] = Rate 250 g/ha, Pre-emergence (flood test species), scale 0 to 10, 0 is no effect, 10 is complete control
[12] = Rate 500 g/ha, Pre-emergence, flood test species, scale 0 to 10 (0 no effect, 10 complete control)

CC(C)N(C(=O)n1oc(=O)n(C(C)C(=O)N(C)C)c1=O)c1ccc(F)cc1 (centres unmarked) [Compound 478]
B. signalgrass plant response rating (surinam grass; Postemergence, Rate 250 g/ha, scale 0 to 10, 0 no effect, 10 complete control): 5
B. signalgrass plant response rating (surinam grass; [1]): 8
Plant response rating, B. signalgrass (surinam grass; [2]): 4
Plant response rating, B. signalgrass (surinam grass; [3]): 6
B. signalgrass plant response rating (surinam grass; [4]): 9
B. signalgrass plant response rating (surinam grass; [5]): 10
B. signalgrass plant response rating (surinam grass; [6]): 0
B. signalgrass plant response rating (surinam grass; [7]): 0
Cocklebur plant response rating (cocklebur; [8]): 0
Cocklebur plant response rating (cocklebur; [1]): 0
Plant response rating, Cocklebur (cocklebur; [2]): 0
Plant response rating, Cocklebur (cocklebur; [3]): 0
Cocklebur plant response rating (cocklebur; [4]): 0
Cocklebur plant response rating (cocklebur; [5]): 0
Cocklebur plant response rating (cocklebur; [6]): 0
Cocklebur plant response rating (cocklebur; [7]): 0
Corn plant response rating (corn; [8]): 0
Corn plant response rating (corn; [1]): 2
Plant response rating, Corn (corn; [2]): 0
Plant response rating, Corn (corn; [3]): 0
Corn plant response rating (corn; [4]): 0
Corn plant response rating (corn; [5]): 0
Corn plant response rating (corn; [6]): 0
Corn plant response rating (corn; [7]): 0
Giant foxtail plant response rating (giant foxtail; [8]): 8
Giant foxtail plant response rating (giant foxtail; [1]): 9
Plant response rating, Giant foxtail (giant foxtail; [2]): 9
Plant response rating, Giant foxtail (giant foxtail; [3]): 10
Giant foxtail plant response rating (giant foxtail; [4]): 10
Giant foxtail plant response rating (giant foxtail; [5]): 10
Giant foxtail plant response rating (giant foxtail; [6]): 3
Giant foxtail plant response rating (giant foxtail; [7]): 6
Morningglory plant response rating (morningglory; [8]): 7
Plant response rating, Morningglory (morningglory; Preemergence, Rate 62 g/ha): 0
Plant response rating, Morningglory (morningglory; Preemergence, Rate 125 g/ha): 0
Morningglory plant response rating (morningglory; [4]): 1
Morningglory plant response rating (morningglory; [5]): 2
Morningglory plant response rating (morningglory; [6]): 3
Morningglory plant response rating (morningglory; [7]): 3
Redroot pigweed plant response rating (pigweed; [8]): 3
Plant response rating, Redroot pigweed (pigweed; Preemergence, Rate 62 g/ha): 8
Plant response rating, Redroot pigweed (pigweed; Preemergence, Rate 125 g/ha): 8
Redroot pigweed plant response rating (pigweed; [4]): 9
Redroot pigweed plant response rating (pigweed; [5]): 10
Redroot pigweed plant response rating (pigweed; [6]): 1
Redroot pigweed plant response rating (pigweed; [7]): 2
Rape plant response rating (rape; [8]): 0
Plant response rating, Rape (rape; Preemergence, Rate 62 g/ha): 0
Plant response rating, Rape (rape; Preemergence, Rate 125 g/ha): 1
Rape plant response rating (rape; [4]): 4
Rape plant response rating (rape; [5]): 6
Rape plant response rating (rape; [6]): 0
Rape plant response rating (rape; [7]): 0
Soybean plant response rating (soybean; [8]): 2
Plant response rating, Soybean (soybean; Preemergence, Rate 62 g/ha): 0
Plant response rating, Soybean (soybean; Preemergence, Rate 125 g/ha): 0
Soybean plant response rating (soybean; [4]): 0
Soybean plant response rating (soybean; [5]): 0
Soybean plant response rating (soybean; [6]): 2
Soybean plant response rating (soybean; [7]): 2
Sugarbeets plant response rating (sugar beet; [8]): 0
Plant response rating, Sugarbeets (sugar beet; Preemergence, Rate 62 g/ha): 0
Plant response rating, Sugarbeets (sugar beet; Preemergence, Rate 125 g/ha): 0
Sugarbeets plant response rating (sugar beet; [4]): 3
Sugarbeets plant response rating (sugar beet; [5]): 7
Sugarbeets plant response rating (sugar beet; [6]): 0
Sugarbeets plant response rating (sugar beet; [7]): 0
Velvetleaf plant response rating (velvetleaf; [8]): 0
Plant response rating, Velvetleaf (velvetleaf; Preemergence, Rate 62 g/ha): 0
Plant response rating, Velvetleaf (velvetleaf; Preemergence, Rate 125 g/ha): 1
Velvetleaf plant response rating (velvetleaf; [4]): 3
Velvetleaf plant response rating (velvetleaf; [5]): 7
Velvetleaf plant response rating (velvetleaf; [6]): 0
Velvetleaf plant response rating (velvetleaf; [7]): 0
Wheat plant response rating (wheat; [8]): 2
Plant response rating, Wheat (wheat; Preemergence, Rate 62 g/ha): 0
Plant response rating, Wheat (wheat; Preemergence, Rate 125 g/ha): 0
Wheat plant response rating (wheat; [4]): 1
Wheat plant response rating (wheat; [5]): 8
Wheat plant response rating (wheat; [6]): 0
Wheat plant response rating (wheat; [7]): 0
Wild oats plant response rating (wild oat; [8]): 0
Plant response rating, Wild oats (wild oat; Preemergence, Rate 62 g/ha): 2
Plant response rating, Wild oats (wild oat; Preemergence, Rate 125 g/ha): 7
Wild oats plant response rating (wild oat; [4]): 9
Wild oats plant response rating (wild oat; [5]): 10
Wild oats plant response rating (wild oat; [6]): 0
Wild oats plant response rating (wild oat; [7]): 0
Plant response rating, Rice (0 to 10 scale, 0 is no effect, 10 is complete control) (rice; [9]): 0
Rice plant response rating (0 to 10 scale, 0 is no effect, 10 is complete control) (rice; [10]): 0
Rice plant response rating (rice; [11]): 0
Rice plant response rating (rice; [12]): 0
Plant response rating, S. Flatsedge (0 to 10 scale, 0 is no effect, 10 is complete control) (smallflower flatsedge; [9]): 0
S. Flatsedge plant response rating (0 to 10 scale, 0 is no effect, 10 is complete control) (smallflower flatsedge; [10]): 0
S. Flatsedge plant response rating (smallflower flatsedge; [11]): 0
S. Flatsedge plant response rating (smallflower flatsedge; [12]): 0
Plant response rating, Ducksalad (0 to 10 scale, 0 is no effect, 10 is complete control) (duck salad; [9]): 0
Ducksalad plant response rating (0 to 10 scale, 0 is no effect, 10 is complete control) (duck salad; [10]): 0
Ducksalad plant response rating (duck salad; [11]): 0
Ducksalad plant response rating (duck salad; [12]): 0
Plant response rating, Barnyardgrass (0 to 10 scale, 0 is no effect, 10 is complete control) (bamyardgrass; [9]): 0
Barnyardgrass plant response rating (0 to 10 scale, 0 is no effect, 10 is complete control) (bamyardgrass; [10]): 0
Barnyardgrass plant response rating (bamyardgrass; [11]): 0
Barnyardgrass plant response rating (bamyardgrass; [12]): 0
